Laboratory results reported in patent US10858360B2, “Tricyclic gyrase inhibitors” (priority 2011, dated 2020).
≈ marks a conversion by molar mass, not a printed value. Read-outs that look alike come from different tables or passages of the source.

Tests used:
[1] = system: E. coli ATCC 25922; assay: MIC, E. coli ATCC 25922; assay type: cell-based; conditions: for MIC: Escherichia coli, ATCC25922, E. coli
[2] = system: S. aureus ATCC 13709; assay: MIC, S. aureus ATCC 13709 (Alamar Blue broth microdilution); assay type: cell-based; conditions: for MIC: Staphylococcus aureus, ATCC13709, S. aureus
[3] = Alamar Blue read after overnight incubation at 35° C.
[4] = E. coli, Alamar Blue read after overnight incubation at 35° C.
[5] = S. aureus, Alamar Blue read after overnight incubation at 35° C.

| SMILES | MIC [1, 3] | MIC [2, 3] | MIC Ec [1, 4] | MIC Sa [2, 5] | further results |
| --- | --- | --- | --- | --- | --- |
| CNc1cccc2c1[nH]c1nc(Oc3cnc(C)nc3)nc(N3CC4C(N)C4C3)c12 (stereo not shown) [3.29] | ≤ 0.5 µg/mL | ≤ 0.5 µg/mL | – | – | – |
| CNc1cc(F)cc2c1[nH]c1nc(Oc3cnc(C)nc3)nc(N3CC(N)C(C(F)(F)F)C3)c12 (stereo not shown) [4.436] | > 16 µg/mL | ≤ 0.5 µg/mL | – | – | – |
| CNc1cc(F)cc2c1[nH]c1nc(Oc3cncnc3)nc(N3C[C@@H]4[C@H](C3)[C@@]4(N)C(N)=O)c12 [4.009] | > 64 µg/mL | ≤ 0.5 µg/mL | – | – | – |
| CNc1cc(F)cc2c1[nH]c1nc(Oc3cnc(N)nc3)nc(N3CC4C(CN)C4C3)c12 (stereo not shown) [4.188] | 8 µg/mL (≈ 18.4 µM) | ≤ 0.5 µg/mL | – | – | – |
| CNc1cc(F)cc2c1[nH]c1nc(Oc3cnc(C)nc3)nc(N3CC4(CCC4N)C3)c12 (stereo not shown) [4.100] | – | – | ≤0.5 µg/mL | ≤0.5 µg/mL | – |
| CNc1cc(F)cc2c1[nH]c1nc(Oc3cncnc3)nc(N3CC(C)C(CN)C3)c12 (stereo not shown) [4.023] | – | – | 1 µg/mL (≈ 2.37 µM) | ≤0.5 µg/mL | – |
| CNc1c(F)ccc2c1[nH]c1nc(Oc3cnc4cccnc4c3)nc(N3CC(N)C4(CC4)C3)c12 (stereo not shown) [6.03] | – | – | – | – | MIC Ec [1]: ≤0.5 µg/mL; MIC Sa [2]: ≤0.5 µg/mL |
| CNc1cc(F)cc2c1[nH]c1nc(Oc3cnc(C)nc3)nc(N(C)C3CNC3)c12 [4.134] | – | – | >16 µg/mL | >16 µg/mL | – |
| CNc1cc(F)c(F)c2c1[nH]c1nc(Oc3cnc(C)nc3)nc(N3CC4CC(N)C4C3)c12 (stereo not shown) [5.03] | – | – | ≤0.5 µg/mL | ≤0.5 µg/mL | – |
| CNc1cc(F)cc2c1[nH]c1nc(Oc3cnc(N)nc3)nc(N3CCC4CNC4C3)c12 (stereo not shown) [4.181] | 8 µg/mL (≈ 18.4 µM) | ≤ 0.5 µg/mL | – | – | – |
| CNc1cc(F)cc2c1[nH]c1nc(Oc3cnc(C)nc3)nc(N3CC4CCC(N)CC4C3)c12 (stereo not shown) [4.092] | – | – | 2 µg/mL (≈ 4.32 µM) | ≤0.5 µg/mL | – |
| CNc1cccc2c1[nH]c1nc(Oc3cncnc3)nc(-c3cn[nH]c3)c12 [3.9] | 32 µg/mL (≈ 89.3 µM) | 2 µg/mL (≈ 5.58 µM) | – | – | – |
| CNc1cc(F)cc2c1[nH]c1nc(Oc3cnc(NC4CC4)nc3)nc(N3CC4C(N)C4C3)c12 (stereo not shown) [4.223] | ≤ 0.5 µg/mL | ≤ 0.5 µg/mL | – | – | – |
| CNc1cc(F)cc2c1[nH]c1nc(Oc3cc(O)cc4oc(=O)cc(C)c34)nc(N3CC4CC(N)C4C3)c12 (stereo not shown) [4.383] | – | – | >16 µg/mL | 4 µg/mL (≈ 7.74 µM) | – |
| CNc1cccc2c1[nH]c1nc(Oc3ccc[n+]([O-])c3)nc(Oc3cnc(C)nc3)c12 [3.39] | 64 µg/mL (≈ 154 µM) | 2 µg/mL (≈ 4.81 µM) | – | – | – |
| CNc1cccc2c1[nH]c1nc(Oc3cncnc3)nc(N3CCC(C(N)=O)C3)c12 (stereo not shown) [3.17] | > 16 µg/mL | 2 µg/mL (≈ 4.95 µM) | – | – | – |

| SMILES | MIC [1, 3] | MIC [2, 3] | MIC Ec [1, 4] | MIC Sa [2, 5] | further results |
| --- | --- | --- | --- | --- | --- |
| CNc1cc(F)cc2c1[nH]c1nc(Oc3cncc(F)c3)nc(N3CC(N)C4(CC4)C3)c12 (stereo not shown) [4.056] | ≤ 0.5 µg/mL | ≤ 0.5 µg/mL | – | – | – |
| CNc1cc(F)cc2c1[nH]c1nc(Oc3cnc(CC(=O)OC)nc3)nc(N3C[C@H](N)C4(CC4)C3)c12 [4.368] | ≤ 0.5 µg/mL | ≤ 0.5 µg/mL | – | – | – |
| CNc1cc(F)c(F)c2c1[nH]c1nc(Oc3cnc(C)nc3)nc(N3CC4(CCC4N)C3)c12 (stereo not shown) [5.1] | – | – | ≤0.5 µg/mL | ≤0.5 µg/mL | – |
| CNc1cccc2c1[nH]c1nc(Oc3cncnc3)nc(N3CCN(CCN)CC3)c12 [3.56] | > 64 µg/mL | > 64 µg/mL | – | – | – |
| CNc1cccc2c1[nH]c1nc(Oc3cncnc3)nc(N3CC(F)[C@@H](N)C3)c12 (stereo partly shown) [3.63] | 8 µg/mL (≈ 20.3 µM) | ≤ 0.5 µg/mL | – | – | – |
| CNc1cc(F)cc2c1[nH]c1nc(Oc3cncnc3)nc(N3C4CCC3CC(N)C4)c12 (stereo not shown) [4.025] | 2 µg/mL (≈ 4.6 µM) | ≤ 0.5 µg/mL | – | – | – |
| NC1C2CN(c3nc(Sc4cnc5cccnc5c4)nc4[nH]c5c(NC6CC6)cc(F)cc5c34)CC12 (stereo not shown) [1.1] | 64 µg/mL (≈ 128 µM) | 4 µg/mL (≈ 8.02 µM) | – | – | – |
| CNc1ccc(F)c2c1[nH]c1nc(Oc3cnc(N)nc3)nc(C3CC4C(N)C4C3)c12 (stereo not shown) [6.25] | ≤ 0.5 µg/mL | ≤ 0.5 µg/mL | – | – | – |
| CNc1cc(F)cc2c1[nH]c1nc(Oc3cnc4c(c3)OC=CO4)nc(N3C[C@H](N)C4(CC4)C3)c12 [4.305] | – | – | 1 µg/mL (≈ 2.1 µM) | ≤0.5 µg/mL | – |
| CNc1cc(F)cc2c1[nH]c1nc(Oc3cnc(SC)nc3)nc(N3CC4CC(N)C4C3)c12 (stereo not shown) [4.196] | ≤ 0.5 µg/mL | ≤ 0.5 µg/mL | – | – | – |
| CNc1cc(F)cc2c1[nH]c1nc(Oc3cccnc3)nc(N3CC4CC(N)C4C3)c12 (stereo not shown) [4.348] | – | – | ≤0.5 µg/mL | ≤0.5 µg/mL | – |
| Cc1ncc(Oc2nc(N3C[C@H](N)C4(CC4)C3)c3c(n2)[nH]c2c(N(C)C(=O)[C@H](C)N)cc(F)cc23)cn1 [4.423] | > 16 µg/mL | > 16 µg/mL | – | – | – |
| COc1cccc2c1[nH]c1nc(Oc3cncc(C#N)c3)nc(N3CC4C(N)C4C3)c12 (stereo not shown) [2.15] | – | – | >32 µg/mL | 1 µg/mL (≈ 2.42 µM) | – |
| CNc1cccc2c1[nH]c1nc(Sc3cncc(S(=O)(=O)N(C)C)c3)nc(N3CC4C(N)C4C3)c12 (stereo not shown) [1.22] | 8 µg/mL (≈ 15.7 µM) | 1 µg/mL (≈ 1.96 µM) | – | – | – |
| CNc1cc(F)cc2c1[nH]c1nc(Oc3cncc(Cl)c3)nc(N3CC4CC3CC4N)c12 (stereo not shown) [4.276] | – | – | 8 µg/mL (≈ 17.6 µM) | ≤0.5 µg/mL | – |
| CNc1cccc2c1[nH]c1nc(Oc3cncnc3)nc(N3CCN(CCN4CCOCC4)CC3)c12 [3.60] | > 64 µg/mL | 8 µg/mL (≈ 16.3 µM) | – | – | – |
